Common to all, as to type: physicochemical
Series [1] can be described thus: Competitive slurry experiments, stability relationship of polymorphs in 10% water/acetone. As for the experimental part:
To evaluate the transformation of Compound 1 Di-Hydrochloric Acid Salt solid forms, competitive slurry experiments at 25±1° C. and 60±1° C. in the solvent of 10% water/acetone were performed with a mixture of eight polymorphs (Form I, and Form III through Form IX) as described in Table 23 and Table 24. [table] [table]

Series [2] is described as follows: Solubility measurement in various solvents at 25° C. (Procedure 1). The settings on record: thermodynamic from solid. The method, then: (§1) The solubility of Compound 1 Di-Hydrochloric Acid Salt Form I was measured according to Procedure 1 for solubility in 25° C. (Table 5) and Procedure 2 for 50° C. [table] [table]
Series [3] in a line: Solubility measurement in various solvents at 50° C. (Procedure 2). As for the experimental part:
as §1

[4] abbreviates: 2% water in acetone, organic solvent or mixture.
Setting [5] is: 2% water in acetonitrile, organic solvent or mixture.
Where [6] appears, read: 2-methoxyethanol, organic solvent or mixture.
The mark [7] stands for this setting: 5% water in acetone, organic solvent or mixture.
[8] abbreviates: 5% water in acetonitrile, organic solvent or mixture.
The mark [9] stands for this setting: 10% water in acetone, organic solvent or mixture.
Setting [10] is: 10% water in acetonitrile, organic solvent or mixture.
Where [11] appears, read: DMF, organic solvent or mixture.
The mark [12] stands for this setting: DMSO, organic solvent or mixture.
The mark [13] stands for this setting: EtOH, organic solvent or mixture.
Where [14] appears, read: IPA, organic solvent or mixture.
Where [15] appears, read: MeCN, organic solvent or mixture.
Where [16] appears, read: acetone, organic solvent or mixture.
[17] abbreviates: chloroform, organic solvent or mixture.

As for `Cl.Cl.Cn1c(C(=O)Nc2cccc(-c3cccc(NC(=O)c4nc5c(n4C)CCN(CCC46CCC(C(=O)O)(CC4)C6)C5)c3Cl)c2Cl)nc2c1CCN(CCC13CCC(C(=O)O)(CC1)C3)C2` [Form III, 4,4′-(((((2,2′-dichloro-[1,1′-biphenyl]-3,3′-diyl)bis(azanediyl))bis(carbonyl))bis(1-methyl-1,4,6,7-tetrahydro-5H-imidazo[4,5-c]pyridine-2,5-diyl))bis(ethane-2,1-diyl))bis(bicyclo[2.2.1]heptane-1-carboxylic acid) di-hydrochloric acid salt], in series [1] (mixture of polymorphs stirred in 10% water/acetone at 25±° C. for 20 hours and at 60±° C. for 2 h), the “Polymorph transformation in competitive slurry (XRPD)” value was “converted to Form I”.
For `Cl.Cl.Cn1c(C(=O)Nc2cccc(-c3cccc(NC(=O)c4nc5c(n4C)CCN(CCC46CCC(C(=O)O)(CC4)C6)C5)c3Cl)c2Cl)nc2c1CCN(CCC13CCC(C(=O)O)(CC1)C3)C2` [4,4′-(((((2,2′-dichloro-[1,1′-biphenyl]-3,3′-diyl)bis(azanediyl))bis(carbonyl))bis(1-methyl-1,4,6,7-tetrahydro-5H-imidazo[4,5-c]pyridine-2,5-diyl))bis(ethane-2,1-diyl))bis(bicyclo[2.2.1]heptane-1-carboxylic acid) di-hydrochloric acid salt], the solubility in series [2] (setting [4]) came to 50 µg/mL; in series [2] (setting [5]), 10 µg/mL; in series [2] (setting [6]), 16900 µg/mL; in series [2] (setting [7]), 320 µg/mL; in series [2] (setting [8]), 1040 µg/mL; in series [2] (setting [9]), 2300 µg/mL. In addition, the solubility in series [2] (setting [10]) is 3640 µg/mL; in series [2] (setting [11]) it was 2980 µg/mL; in series [2] (setting [12]), greater than 50000 µg/mL; in series [2] (setting [13]), 390 µg/mL; in series [2] (setting [14]) it was 650 µg/mL; in series [2] (IPAc, organic solvent or mixture), 10 µg/mL. In addition, the solubility was 20 µg/mL in series [2] (setting [15]); 50 µg/mL in series [2] (THF, organic solvent or mixture); 10 µg/mL in series [2] (setting [16]); greater than 50000 µg/mL in series [2] (setting [17]); 710 µg/mL in series [2] (organic solvent or mixture, 1-Propanol, solid phase Form V); 18800 µg/mL in series [2] (organic solvent or mixture, Methanol, solid phase Form III). The solubility in series [2] (organic solvent or mixture, n-BuOH, solid phase Form IV) was found to be 460 µg/mL; in series [2] (Water, solid phase Form VI), 12900 µg/mL; in series [3] (1,4-dioxane, organic solvent or mixture), 10 µg/mL; in series [3] (1-propanol, organic solvent or mixture), 1120 µg/mL; in series [3] (setting [4]) it was 110 µg/mL; in series [3] (setting [5]) it was 10 µg/mL. The solubility in series [3] (setting [6]) is 28300 µg/mL; in series [3] (setting [7]), 560 µg/mL; in series [3] (setting [8]), 1210 µg/mL; in series [3] (setting [9]), 5710 µg/mL; in series [3] (setting [10]) it was 6610 µg/mL; in series [3] (setting [11]), 5480 µg/mL. Also, the solubility in series [3] (setting [12]) is greater than 50000 µg/mL; in series [3] (setting [13]), 1100 µg/mL; in series [3] (setting [14]) it was 980 µg/mL; in series [3] (MEK, organic solvent or mixture), 150 µg/mL; in series [3] (MIBK, organic solvent or mixture), 10 µg/mL; in series [3] (setting [15]), 10 µg/mL. The solubility in series [3] (THF, organic solvent or mixture, thermodynamic from solid) is 40 µg/mL; in series [3] (setting [16]) it was 10 µg/mL; in series [3] (setting [17]) it was greater than 50000 µg/mL; in series [3] (methanol, organic solvent or mixture, thermodynamic from solid), 22100 µg/mL; in series [3] (organic solvent or mixture, thermodynamic from solid, n-BuOH, solid phase Form IV) it was 420 µg/mL; in series [3] (thermodynamic from solid, Water, solid phase Form VI), 14800 µg/mL. The “Relative stability of polymorphic forms” value in series [1] (10% water/acetone at 25 and 60° C., competitive slurry) is on record as “most stable polymorphic form”.

(Values after US11866451B2, “Salts and crystalline forms of a PD-1/PD-L1 inhibitor” (Incyte Corporation, priority 2019, dated 2024).)
